In article PMC8956723, “Secretory quality control constrains functional selection-associated protein structure innovation” (Communications Biology, 2022):

Legend:
Experiment in all cases: ELISA, CRP binding to immobilised PC-KLH
Settings in all cases: PC presented as immobilised KLH conjugate, not free ligand; 2 mM CaCl2, TBS pH 7.4; calcium-dependent
human CRP = target: T1, human CRP (Homo sapiens, UniProt P02741)
T1 sequence (P02741 19-224): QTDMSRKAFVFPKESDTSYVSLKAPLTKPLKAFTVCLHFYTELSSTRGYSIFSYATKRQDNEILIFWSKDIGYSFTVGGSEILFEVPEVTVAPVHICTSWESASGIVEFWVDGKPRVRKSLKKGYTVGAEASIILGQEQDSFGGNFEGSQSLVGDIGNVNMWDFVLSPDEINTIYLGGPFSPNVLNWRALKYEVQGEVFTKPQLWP

mouse CRP = target: T2, mouse CRP (Mus musculus, UniProt P14847)
T2 construct: signal peptide replaced by alpha-factor signal, N-terminal 6xHis tag kept; secreted from Pichia pastoris GS115; homopentamer
T2 sequence (P14847 20-225): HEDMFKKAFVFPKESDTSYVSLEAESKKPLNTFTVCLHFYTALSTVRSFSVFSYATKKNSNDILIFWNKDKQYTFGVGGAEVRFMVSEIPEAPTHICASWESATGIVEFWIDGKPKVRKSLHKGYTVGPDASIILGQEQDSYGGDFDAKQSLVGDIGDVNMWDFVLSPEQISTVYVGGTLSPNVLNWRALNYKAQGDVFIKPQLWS

rat CRP = target: T3, rat CRP (Rattus norvegicus, UniProt P48199)
T3 construct: signal peptide replaced by alpha-factor signal, N-terminal 6xHis tag kept; secreted from Pichia pastoris GS115; homopentamer
T3 sequence (P48199 20-230): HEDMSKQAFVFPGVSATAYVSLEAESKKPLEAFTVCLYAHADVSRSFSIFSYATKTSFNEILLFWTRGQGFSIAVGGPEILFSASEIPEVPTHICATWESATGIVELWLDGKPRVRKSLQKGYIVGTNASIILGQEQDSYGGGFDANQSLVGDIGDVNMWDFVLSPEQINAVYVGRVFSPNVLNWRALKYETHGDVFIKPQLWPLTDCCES

Compound: C[N+](C)(C)CCOP(=O)([O-])O [phosphorylcholine]
- ELISA, CRP binding to immobilised PC-KLH (human CRP): mouse, rat, and human CRP also showed a comparable capacity to bind PC
- ELISA, CRP binding to immobilised PC-KLH (mouse CRP): mouse, rat, and human CRP also showed a comparable capacity to bind PC
- ELISA, CRP binding to immobilised PC-KLH (rat CRP): mouse, rat, and human CRP also showed a comparable capacity to bind PC
